SMILES strings stand for the structures. Where “and” joins values, the source holds several entries; their conditions need not be identical. Equal values may be shown once.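 Tested at 5 concentrations; 48 h exposure; 96-well plates; endpoints linearly interpolated, else capped at highest concentration. Abbreviation: GI50, concentration required for 50% inhibition of growth. TGI: total growth inhibition.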 *1 amine or outer side, *2 acyl side, *3 side chain or, on linkers, in order; H or OH if unused. Where a SMILES comes first, the peptide text is derived from it. [ ]: non-standard residue; d: D form. X56 = CC[C@H](C)[C@H](OC(=O)[C@@H](C)[C@@H](CC)N[*:1])C(=O)[*:2]; X32 = C[C@H](N[*:1])C(=O)C(C)(C)C(=O)[*:2]; NMeY = CN[C@@H](Cc1ccc(O)cc1)C(=O)O; NMeL = CN[C@@H](CC(C)C)C(=O)O; NMeV = CN[C@H](C(=O)O)C(C)C

What all share (assay): NCI anticancer screen, dose series, 48 h
Assay [1] deals with SK-MEL-28 melanoma.
Assay [2] deals with HOP-62 NSCLC.
Assay [3] has as its system ACHN renal.
Assay [4] concerns MDA-MB-435.
Assay [5] deals with NCI-H460 lung.
The test system of assay [6] is K-562 leukemia.
The test system of assay [7] is SF-268 CNS.
The test system of assay [8] is T-47D breast.
Assay [9] deals with NCI-H226 lung.
The subject of assay [10] is A498 renal.

With `CCNCCCn1c2c(c3ccc([N+](=O)[O-])cc3c1=O)C(=O)c1cc(OC)cnc1-2`, the GI50 is 0.227 µM in [1]; 0.107 µM in [2]; 0.0313 µM in assay [3]; 0.133 µM in [4]; 0.0321 µM in assay [5]; 0.0522 µM in [6]. The figures for the GI50 in [7] and in [8] were 0.0527 µM and 0.036 µM, respectively. Besides, the TGI in assay [1] is 1.56 µM; in assay [2], 1.89 µM; in assay [3], 0.144 µM; in assay [4], 0.744 µM; in [5], 0.376 µM; in assay [6], 1.65 µM. Further, the TGI in [7] came out at 1.5 µM; in assay [8], 12 µM.
For the compound `Cc1nc(C(N)=S)sc1C(=O)C/C(=N/N)C(=O)Nc1ccc(Cl)cc1`, the TGI in assay [1], in assay [2], in assay [3], in [4], in [5] and in assay [6] was greater than 100 µM each time. The TGI in assay [7], in assay [8] and in assay [9] was greater than 100 µM in each case.
For the compound `COc1ccc2c(c1)/C(=C/c1cc(OC)c(OC)c(OC)c1)C(=O)N2C`, the GI50 in assay [1] was 3.58 µM; in [2], 4.63 µM; in [3], 3.6 µM; in assay [5] it was 2.46 µM; in assay [6], 1.12 µM; in [10] it was 2.5 µM. In addition, the GI50 in assay [7] is 2.39 µM; in [8], 2.59 µM; in assay [9], 4.85 µM. The TGI was 22.5 µM in assay [1]; 97.6 µM in assay [2]; greater than 39.5 µM in [3]; 7.02 µM in [5]; greater than 46.5 µM in assay [6]; 5.92 µM in assay [10]. Besides, the TGI in assay [7] was 6.72 µM; in assay [8] it was 6.45 µM; in [9] it was greater than 100 µM.
As to `N#Cc1c(N)nc(N2CCOCC2)c(C#N)c1-c1ccccc1Cl`, the GI50 in assay [1] was 33.6 µM; in assay [2], greater than 100 µM; in [4], 80.2 µM; in assay [5], 26.8 µM; in [6], 60.9 µM; in assay [10] it was 2.28 µM. The GI50 in assay [7] is 25.4 µM; in assay [8], 21.2 µM; in assay [9], 55.5 µM. Also, the TGI is greater than 100 µM in assay [1]; greater than 100 µM in [2]; greater than 100 µM in assay [4]; greater than 100 µM in assay [5]; greater than 100 µM in assay [6]; 25.2 µM in assay [10]. In addition, the TGI in assay [7] was 85.7 µM; in assay [8], greater than 100 µM; in assay [9], greater than 100 µM.
With `CC[C@H](C)[C@@H]1OC(=O)[C@@H](C)[C@@H](CC)NC(=O)[C@H](C)NC(=O)C(C)(C)C(=O)[C@H](C)NC(=O)[C@H](Cc2ccc(OC)cc2)N(C)C(=O)[C@H](C(C)C)N(C)C(=O)CNC(=O)[C@H](CC(C)C)N(C)C(=O)CNC1=O` (cyclo(A[X56]G[NMeL]G[NMeV][NMeY](Me)[X32])), the GI50 was 0.0727 µM and < 0.0164 µM in assay [1]; less than 0.0165 µM in [3]; less than 0.0322 µM in assay [6]; 0.0398 µM in assay [10]; less than 0.0161 µM in assay [7]; 0.0731 µM in assay [9]. Further, the TGI is 0.165 µM in assay [1]; 0.175 µM in assay [2]; 0.332 µM and 0.0908 µM in assay [3]; 2.47 µM in [4]; 0.634 µM in assay [6]; 1.38 µM and 0.197 µM in [10]. Also, the TGI in [9] is 3.75 µM and 1.06 µM.
For the compound `O=C1CCS/C(=N\S(=O)(=O)c2ccc(N3N=C4c5ccccc5CC4C3c3cccs3)cc2)N1C(=O)c1ccccc1` (centres undefined), the GI50 in assay [1] is 50.2 µM; in assay [2], 31.1 µM; in assay [3], 5.18 µM; in [4], 22.7 µM; in assay [5] it was 26.6 µM; in assay [6] it was 26.4 µM. Also, the results for the GI50 in assay [7], in assay [8] and in assay [9] were 13.7 µM, greater than 100 µM and 15.9 µM, respectively. The TGI in assay [1] is greater than 100 µM; in assay [2] it was greater than 100 µM; in assay [3], 18.5 µM; in [4] it was 53.4 µM; in assay [5], greater than 100 µM; in assay [6] it was greater than 100 µM. Besides, the TGI was greater than 100 µM in assay [7], greater than 100 µM in [8] and 41 µM in assay [9].
Take `COc1cc2c(cc1OCCCCOc1ccc(-c3nc4ccccc4s3)cc1)N=C[C@@H]1CCCN1C2=O`: the GI50 in assay [1] was 2.18 µM; in assay [2] it was 0.745 µM; in assay [3], 0.742 µM; in assay [5], 1.56 µM; in assay [6], 0.301 µM; in assay [10], 1.99 µM. The GI50 in [7] was 0.998 µM; in assay [8] it was 0.339 µM; in assay [9], 1.71 µM. For the same compound, the TGI in assay [1] was found to be 4.95 µM; in assay [2] it was 2.14 µM; in [3] it was 2.59 µM; in [5], 4.06 µM; in assay [6] it was 4.91 µM; in assay [10] it was 4.34 µM. The TGI in [7] is 3.58 µM; in assay [8], 1.45 µM; in [9], 3.89 µM.
`C=C1C[C@@]2(C)C(CC[C@]3(C)C2CC=C2C4CC(C)(C)C[C@@H](OC(=O)/C(C)=C\C)[C@]4(C(=O)O)CC[C@]23C)C(C)(C)C1=O` (some centres undefined): the GI50 in assay [1] is 2.32 µM; in assay [2], 3.43 µM; in [3], 2.04 µM; in [4] it was 2.83 µM; in assay [5], 3.22 µM; in assay [6] it was 2.45 µM. For the same compound, the GI50 was 6.76 µM in [7], 3.25 µM in assay [8] and 2.23 µM in assay [9]. The TGI stood at 5.44 µM in [1]; 22.3 µM in [2]; 4.12 µM in assay [3]; 8.61 µM in assay [4]; 11 µM in assay [5]; 11.5 µM in [6]. In addition, the TGI in assay [7] amounted to 28 µM; in [8] it was 15.2 µM; in assay [9], 6.16 µM.
In the case of `CSc1ncnc2c1CCN2`, the GI50 in [1] and in assay [7] was greater than 100 µM each time. Further, the TGI in [1] is greater than 100 µM; in assay [2], greater than 100 µM; in [4] it was 6.04 µM; in assay [7], greater than 100 µM.

(Values after PubChem BioAssay (NCI).)
